This note sets out measurements from patent publication US11179412B2, “Methods of treating conditions involving elevated inflammatory response” (University of Pittsburgh—Of the Commonwealth System of …, priority 2017, dated 2021).

Where a name gives a salt, the structure may show the parent alone.

This assay has as its system STING activation (IFNβ release) in iBMDMs. The assay can be described thus: IFNβ release ELISA after STING ligand (or LPS) stimulation, iBMDMs. The class given is cell-based, mouse. The note with it: iBMDMs; 3′3′-cGAMP 10 μg/ml, 16 hours; compound 10 μM. An excerpt: Commercially available enzyme-linked immunosorbent assay (ELISA) kits were used to measure the concentrations of mouse IFNβ (Thermo Fisher Scientific) or human IFNβ (Thermo Fisher Scientific) in culture medium according to the manufacturer's instructions. […]
Consider `CC[C@H](NC(=O)[C@H](C)NC)C(=O)N1C[C@@H](O)C[C@H]1Cc1c(-c2[nH]c3cc(F)ccc3c2C[C@@H]2C[C@H](O)CN2C(=O)[C@H](CC)NC(=O)[C@H](C)NC)[nH]c2cc(F)ccc12` [Birinapant], for which the “fold increase in IFN-β release” value worked out at 1.15 fold. As for `CC(C)NCC(O)COc1ccc(COCCOC(C)C)cc1` (stereo not shown) [Bisoprolol fumarate], the figure is 0.70 fold.

For the compound `CC(C)C[C@H](NC(=O)[C@H](Cc1ccccc1)NC(=O)c1cnccn1)B(O)O` [Bortezomib (PS-341), Bortezomib], the “fold increase in IFN-β release” value amounted to 0.37 fold. The figure for `COc1ccccc1Oc1c(NS(=O)(=O)c2ccc(C(C)(C)C)cc2)nc(-c2ncccn2)nc1OCCO` [Bosentan Hydrate] is 1.20 fold; for `COc1cc(Nc2c(C#N)cnc3cc(OCCCN4CCN(C)CC4)c(OC)cc23)c(Cl)cc1Cl` [Bosutinib (SKI-606), Bosutinib] it is 1.78 fold. In the case of `CCN[C@H]1CN(CCCOC)S(=O)(=O)c2sc(S(N)(=O)=O)cc21` [Brinzolamide], the “fold increase in IFN-β release” value is 1.93 fold.

Consider `CCCCN1CCCCC1C(=O)Nc1c(C)cccc1C` (stereo not shown) [Bupivacaine HCl], for which the “fold increase in IFN-β release” value amounted to 0.42 fold. The figure for `NC1(Cc2ccc(Cl)cc2)CCN(c2ncnc3[nH]ccc23)CC1` [CCT128930] is 1.46 fold. For `CC(C)C[C@H](NC(=O)[C@@H](NC(=O)c1cccc(-c2ccccc2)n1)[C@@H](C)O)B(O)O` [CEP-18770 (Delanzomib), Delanzomib], the “fold increase in IFN-β release” value is 0.82 fold.

`Cc1c(NC(=O)c2ccc(C(C)(C)C)cc2)cccc1-c1cn(C)c(=O)c(Nc2ccc(C(=O)N3CCOCC3)cc2)n1` [CG11746]: the “fold increase in IFN-β release” value was found to be 0.16 fold. For `O=C(NC(NC(=S)Nc1ccc(F)c([N+](=O)[O-])c1)C(Cl)(Cl)Cl)C(c1ccccc1)c1ccccc1` (stereo not shown) [CGK 733], the “fold increase in IFN-β release” value is recorded as 2.50 fold. The figure for `Nc1ncnc2n[nH]c(Nc3ccc(F)cc3)c12` [CGP 57380] is 0.54 fold; for `CCNC(=O)[C@H]1O[C@@H](n2cnc3c(N)nc(NCCc4ccc(CCC(=O)O)cc4)nc32)[C@H](O)[C@@H]1O` [CGS 21680 HCl] it is 2.00 fold.

In the case of `O=c1[nH]c2ccc(Cl)cc2c(N[C@@H]2CN3CCC2CC3)c1-c1nc2ccccc2[nH]1` [CHIR-124], the “fold increase in IFN-β release” value was found to be 1.30 fold. With `Cc1[nH]c2ccccc2c1CCNC(=O)c1cccs1` [CK-636], the “fold increase in IFN-β release” value was found to be 2.06 fold.

Regarding `C=CC(=O)Nc1cccc(Nc2nc(Nc3ccc(Oc4ccnc(C(=O)NC)c4)cc3)ncc2F)c1` [CNX-774], the “fold increase in IFN-β release” value was determined as 0.73 fold. `C=CC(=O)Nc1cccc(Nc2nc(Nc3ccc(NC4CN(CCF)C4)cc3OC)ncc2C(F)(F)F)c1` [CNX-2006]: the “fold increase in IFN-β release” value stood at 1.93 fold. As for `CN(C)C(=O)[C@H](O)[C@H](Cc1ccccc1)NC(=O)c1cc2cc(Cl)ccc2[nH]1` [CP-91149], the “fold increase in IFN-β release” value came out at 0.14 fold. As for `COCCOc1ccc2c(c1)ncn2-c1ccc2cccc(N3CCC(N)CC3)c2n1` [CP-673451], the figure is 0.27 fold; as for `O=C(O)c1cc2cccc([N+](=O)[O-])c2[nH]1` [CRT0044876], 2.75 fold. With `O=C(O)c1cc(I)ccc1NC(=O)[C@H](Cc1ccccc1)NCc1ccccc1` [CW069], the “fold increase in IFN-β release” value was found to be 4.03 fold.

Turning to `O=C(/C=C/c1ccc(O)c(O)c1)OCCc1ccccc1` [Caffeic Acid Phenethyl Ester], the “fold increase in IFN-β release” value is on record as 0.44 fold. As for `Cc1ccc([C@@H]2O[C@H](CO)[C@@H](O)[C@H](O)[C@H]2O)cc1Cc1ccc(-c2ccc(F)cc2)s1` [Canagliflozin], the “fold increase in IFN-β release” value is 1.58 fold.

As for `CCOc1nc2cccc(C(=O)O)c2n1Cc1ccc(-c2ccccc2-c2nnn[nH]2)cc1` [Candesartan], the “fold increase in IFN-β release” value came out at 2.31 fold.

On to `C[C@H](CS)C(=O)N1CCC[C@H]1C(=O)O` [Captopril], for which the “fold increase in IFN-β release” value stood at 2.62 fold. The figure for `COc1ccccc1OCCNCC(O)COc1cccc2[nH]c3ccccc3c12` (stereo not shown) [Carvedilol] is 1.87 fold; for `Cc1ccc(-c2cc(C(F)(F)F)nn2-c2ccc(S(N)(=O)=O)cc2)cc1` [Celecoxib] it is 0.76 fold; for `COc1ccc([C@]2(C#N)CC[C@@H](C(=O)O)CC2)cc1OC1CCCC1` [Cilomilast] it is 2.08 fold. In the case of `C[C@@H](NCCCc1cccc(C(F)(F)F)c1)c1cccc2ccccc12` [Cinacalcet HCl], the “fold increase in IFN-β release” value was 0.55 fold. As for `CN1CCC[C@@H]1CCO[C@](C)(c1ccccc1)c1ccc(Cl)cc1` [Clemastine Fumarate], the figure is 1.32 fold; as for `C=C1C(=O)O[C@@H]2/C=C(\C)CC/C=C(\C)CC[C@@H]12` [Costunolide], 0.37 fold; as for `CC1(COc2ccc3c(c2)ncn3-c2ccc3cccc(N4CCC(N)CC4)c3n2)COC1` [Crenolanib (CP-868596), Crenolanib], 0.32 fold. As for `C[C@H]1COC2=C1C(=O)C(=O)c1c2ccc2c1CCCC2(C)C` [Cryptotanshinone], the “fold increase in IFN-β release” value stood at 0.17 fold. The figure for `CC(=O)O[C@]1(C(C)=O)CC[C@H]2[C@@H]3C=C(Cl)C4=CC(=O)[C@@H]5C[C@@H]5[C@]4(C)[C@H]3CC[C@@]21C` [Cyproterone Acetate] is 1.24 fold; for `c1ccc(CNc2nc(NCc3ccccc3)c3ccccc3n2)cc1` [DBeQ] it is 2.18 fold; for `CNC(=O)c1cc(Oc2ccc(NC(=O)Nc3cc(C(C)(C)C)nn3-c3ccc4ncccc4c3)c(F)c2)ccn1` [DCC-2036 (Rebastinib), Rebastinib] it is 1.71 fold. For the compound `CC(C)Oc1ccc(-c2cnc3c(-c4ccnc5ccccc45)cnn3c2)cc1` [DMH1], the “fold increase in IFN-β release” value amounted to 1.43 fold. Turning to `Cc1ccc2c(=O)c3cccc(CC(=O)O)c3oc2c1C` [DMXAA (Vadimezan), 5,6-dimethylxanthenone-4-acetic acid], the “fold increase in IFN-β release” value is on record as 3.23 fold.

With `CC(C)(C)c1nc(-c2cccc(NS(=O)(=O)c3c(F)cccc3F)c2F)c(-c2ccnc(N)n2)s1` [Dabrafenib (GSK2118436), Dabrafenib], the “fold increase in IFN-β release” value is 0.86 fold. With `CCC(CC)CC1(C(=O)Nc2ccccc2SC(=O)C(C)C)CCCCC1` [Dalcetrapib (JTT-705, RO4607381), Dalcetrapib], the “fold increase in IFN-β release” value is 0.13 fold. As for `CCOc1ccc(Cc2cc([C@@H]3O[C@H](CO)[C@@H](O)[C@H](O)[C@H]3O)ccc2Cl)cc1` [Dapagliflozin], the figure is 1.57 fold. For the compound `COc1cccc2c1C(=O)c1c(O)c3c(c(O)c1C2=O)C[C@@](O)(C(C)=O)C[C@@H]3O[C@H]1C[C@H](N)[C@H](O)[C@H](C)O1` [Daunorubicin HCl], the “fold increase in IFN-β release” value was 0.11 fold.

Consider `COc1cc2nc(N3CCN(C(=O)C4COc5ccccc5O4)CC3)nc(N)c2cc1OC` (stereo not shown) [Doxazosin Mesylate], for which the “fold increase in IFN-β release” value was 0.69 fold.
